# Test results reported in patent US9487538B2, “Two-carbon linked artemisinin-derived trioxane dimers” (THE JOHNS HOPKINS UNIVERSITY, priority 2013, dated 2016).
# Experiments:
# [1] = tested on: P. berghei ANKA strain; experiment: animal or person; format: in vivo; settings: for average survival time of all mice receiving the compound: over both experiments, artemether: combination therapy groups
# Procedure: Nearly all of the two-carbon linked dimer analogs were evaluated in Plasmodium berghei infected mice using a 60-day survival study. Each trioxane (0.64 mg) and mefloquine hydrochloride (1.92 mg) were dissolved in 100 μL of 7:3 Tween:EtOH mixture, and the mixture was further diluted with 965 μL of water (total volume of 1065 μL). Twenty-four hours after infection with P. berghei ANKA strain (2×10^7 parasitized erythrocytes), each of four 5-week old C57BL/6J mice (Jackson Laboratory, weighing approximately 20 g each) received 200 μL of the trioxane solution via oral gavage, corresponding to a dose of 6 mg/kg of trioxane and 18 mg/kg of mefloquine hydrochloride. Blood parasitemia levels and duration of animal survival as compared to survival time of animals receiving no drug were monitored, both being widely accepted measures of a drug's antimalarial efficacy.
# A second mouse experiment was initiated to further evaluate several of the lead compounds. An alternative adjuvant to establish a broader understanding of the efficacy of these compounds also was evaluated. […] As summarized in Table 2, all of the lead compounds outperformed the drug artemether (4b), which prolonged survival to an average of 38.5 days and 19.0 days in combination with mefloquine and lumefantrine, respectively. One mouse receiving dimer methyl oxime Z-29 and mefloquine died early in the experiment (day 16) while the other three lived to day 60, an average of 49.0 days. Dimer methyl oxime Z-29 was, however, was marginally effective in combination with lumefantrine (26.3 day average) and not effective as a monotherapy, with an average survival time (8.3 days) similar to that of infected mice receiving no drug (8.8 days). Dimer allyl oxime 30 was efficacious in all three groups, extending survival time to 49.0 days, 41.3 days, and 46.8 days in combination with mefloquine, lumefantrine, or as a monotherapy, respectively. […] One mouse receiving mefloquine combination died at an extended time point (35 days) while the other three survived the entire 60 days, an average of 53.8 days. All four mice receiving lumefantrine combination survived the entire 60 days. […] The monotherapy dose prolonged survival time to 46.8 days, similar to that of dimer allyl oxime 30.
# [2] = tested on: P388 leukemia; settings: NCI Report, tested on 25 Oct. 1983; cited from earlier work
# [3] = tested on: cell line panels consisting of 60 lines (nine disease-related subpanels); settings: 60 cell lines; cited from earlier work
# [4] = Table 2, trioxane 6 mg/kg + mefloquine 18 mg/kg
# [5] = Table 1, trioxane 6 mg/kg + Mef-HCl 18 mg/kg, single oral dose
# [6] = Table 1, trioxane 6 mg/kg + Mef-HCl 18 mg/kg, determined on day 3 post infection
# [7] = Table 2, trioxane 6 mg/kg + lumefantrine 18 mg/kg
# [8] = Table 2, trioxane 150 mg/kg, adjuvant none (monotherapy)
# [9] = first experiment, trioxane 6 mg/kg + mefloquine hydrochloride 18 mg/kg, four mice
Compound,"% parasitemia suppression [1, 4]","survival after infection avg [1, 4]","survival after infection avg [1, 5]","% parasitemia suppression [1, 6]",other results
"CO/N=C(\C[C@H]1O[C@H](OC)[C@@]23OC(C)C2C(C)C[C@H]3[C@H]1C)[C@H]1O[C@H](OC)[C@@]23OC(C)C2C(C)C[C@H]3[C@H]1C (stereo partly drawn) [E-29, Dimer O-Methyl Oxime]",>99.9%,37.0 days,–,–,–
"CO/N=C(/C[C@H]1O[C@H](OC)[C@@]23OC(C)C2C(C)C[C@H]3[C@H]1C)[C@H]1O[C@H](OC)[C@@]23OC(C)C2C(C)C[C@H]3[C@H]1C (stereo partly drawn) [Z-29, Dimer O-Methyl Oxime]",>99.9%,49.0 days,60.0 days,>99.9%,"inhibition in vivo at 150 mg/kg ([1]; Plasmodium berghei, in Mus musculus, po, Table 2, trioxane 150 mg/kg, adjuvant none (monotherapy), read-out: % parasitemia suppression): 98%; % parasitemia suppression [1, 7]: >99.9%; survival after infection avg [1, 7]: 26.3 days; survival after infection avg [1, 8]: 8.3 days; cure of mice [1, 9]: complete cures of all four mice"
"CO[C@H]1O[C@@H]2O[C@@]3(C)CC[C@H]4[C@H](C)CC[C@@H]([C@H]1C)[C@@]24OO3 [artemether (4b), artemether, reference compound]",>99.9%,38.5 days,40.0 days,>99.9%,"% parasitemia suppression [1, 7]: >99.9%; survival after infection avg [1, 7]: 19.0 days; average survival time of all mice receiving the compound [1]: 31.7 days"
C[C@@H]1CC[C@H]2[C@@H](C)C(=O)O[C@@H]3O[C@@]4(C)CC[C@@H]1[C@]32OO4 [artemisinin],–,–,–,–,activity against P388 leukemia [2]: inactive; anticancer activity [3]: modest anticancer activity
"C[C@H]1[C@@H](C(=O)C[C@H]2O[C@@H]3O[C@]4(C)CC[C@H]5[C@H](C)CC[C@@H]([C@H]2C)[C@@]35OO4)O[C@@H]2O[C@]3(C)CC[C@H]4[C@H](C)CC[C@@H]1[C@@]24OO3 [compound 24, Artemisinin Two-Carbon Linked Dimer Ketone]",–,–,48.3 days,>99.9%,–
"CO[C@H]1O[C@H](/C(C[C@H]2O[C@H](OC)[C@@]34OC(C)C3C(C)C[C@H]4[C@H]2C)=N\O)[C@H](C)[C@@H]2CC(C)C3C(C)O[C@@]312 (stereo partly drawn) [compound 28, Dimer Oxime]",–,–,52.5 days,>99.9%,–
"C[C@H]1[C@@H](/C(C[C@H]2O[C@@H]3O[C@@]4(C)CC[C@H]5[C@H](C)CC[C@@H]([C@H]2C)[C@@]35OO4)=N\OCC2CC2)O[C@@H]2O[C@@]3(C)CC[C@H]4[C@H](C)CC[C@@H]1[C@@]24OO3 [compound 31, dimer O-methylcyclopropyl oxime]",>99.9%,41 days,–,–,–
"C[C@H]1[C@@H](/C(C[C@H]2O[C@@H]3O[C@@]4(C)CC[C@H]5[C@H](C)CC[C@@H]([C@H]2C)[C@@]35OO4)=N\OC(C)(C)C)O[C@@H]2O[C@@]3(C)CC[C@H]4[C@H](C)CC[C@@H]1[C@@]24OO3 [compound 33, dimer tert-butyl oxime]",>99.9%,23.8 days,–,–,–
"C#CCO/N=C(/C[C@H]1O[C@@H]2O[C@@]3(C)CC[C@H]4[C@H](C)CC[C@@H]([C@H]1C)[C@@]24OO3)[C@H]1O[C@@H]2O[C@@]3(C)CC[C@H]4[C@H](C)CC[C@@H]([C@H]1C)[C@@]24OO3 [compound 34, dimer propargyl oxime]",>99.9%,53.8 days,60.0 days,>99.9%,"inhibition in vivo at 6 mg/kg ([1]; Plasmodium berghei, in Mus musculus, po, Table 2, as printed: trioxane 6 mg/kg, adjuvant none, dose 18, read-out: % parasitemia suppression): > 99.9%; survival after infection avg ([1]; Table 2, as printed: trioxane 6 mg/kg, adjuvant none, dose 18): 46.8 days; % parasitemia suppression [1, 7]: >99.9%; survival after infection avg [1, 7]: 60.0 days; survival after infection ([1]; Table 2, trioxane 6 mg/kg + lumefantrine 18 mg/kg, single oral dose): 60 days; survival after infection avg [1, 8]: 46.8 days; cure of mice [1, 9]: complete cures of all four mice; average survival time of all mice receiving the compound [1]: 55.1 days; cure of mice ([1]; two separate experiments, in combination with two different adjuvants (mefloquine and lumefantrine)): complete cure"
"C[C@H]1[C@@H](/C(C[C@H]2O[C@@H]3O[C@@]4(C)CC[C@H]5[C@H](C)CC[C@@H]([C@H]2C)[C@@]35OO4)=N\OC(=O)N(C)C)O[C@@H]2O[C@@]3(C)CC[C@H]4[C@H](C)CC[C@@H]1[C@@]24OO3 [compound 35, dimer oxime dimethylcarbamate]",–,–,51.8 days,>99.9%,–
"CC(=O)O/N=C(/C[C@H]1O[C@@H]2O[C@@]3(C)CC[C@H]4[C@H](C)CC[C@@H]([C@H]1C)[C@@]24OO3)[C@H]1O[C@@H]2O[C@@]3(C)CC[C@H]4[C@H](C)CC[C@@H]([C@H]1C)[C@@]24OO3 [compound 36, dimer oxime acetate]",–,–,27.3 days,>99.9%,–
